# Measured values as given in the kinase profiling compilation of Christmann-Franck et al. (2016).
# Key:
# Assay in all cases: radiometric filter-binding kinase assay
# [1] = biological target: EPHA4 (human) (UniProt P54764); conditions: compound 100.0 µM; ATP 50 µM
# [2] = biological target: MAP2K1 (human) (UniProt Q02750); conditions: compound 100.0 µM; ATP 5 µM
# [3] = biological target: PLK1 (human) (UniProt P53350); conditions: compound 100.0 µM; ATP 5 µM
# [4] = biological target: MAPK13 (human) (UniProt O15264); conditions: compound 100.0 µM; ATP 5 µM
# [5] = biological target: CaMK1 (human) (UniProt Q14012); conditions: compound 100.0 µM; ATP 50 µM
# [6] = biological target: PDPK1 (human) (UniProt O15530); conditions: compound 100.0 µM
# [7] = biological target: MAP3K9 (human) (UniProt P80192); conditions: compound 100.0 µM; ATP 20 µM
# [8] = biological target: HIPK1 (human) (UniProt Q86Z02); conditions: compound 100.0 µM; ATP 20 µM
# [9] = biological target: CAMKK2 (human) (UniProt Q96RR4); conditions: compound 100.0 µM; ATP 20 µM
# [10] = biological target: NUAK1 (human) (UniProt O60285); conditions: compound 100.0 µM; ATP 20 µM
# [11] = biological target: RIPK2 (human) (UniProt O43353); conditions: compound 100.0 µM; ATP 20 µM
# [12] = biological target: PIM1 (human) (UniProt P11309); conditions: compound 100.0 µM; ATP 20 µM
# [13] = biological target: INSR (human) (UniProt P06213); conditions: compound 100.0 µM; ATP 20 µM
# [14] = biological target: MAPK9 (human) (UniProt P45984); conditions: compound 100.0 µM; ATP 20 µM
# [15] = biological target: DAPK1 (human) (UniProt P53355); conditions: compound 100.0 µM; ATP 5 µM
# [16] = biological target: MARK1 (human) (UniProt Q9P0L2); conditions: compound 100.0 µM; ATP 20 µM
# [17] = biological target: MAPKAPK5 (human) (UniProt Q8IW41); conditions: compound 100.0 µM; ATP 20 µM
# [18] = biological target: STK16 (human) (UniProt O75716); conditions: compound 100.0 µM; ATP 50 µM
# [19] = biological target: ABL1 (human) (UniProt P00519); conditions: compound 100.0 µM; ATP 5 µM
# [20] = biological target: NTRK1 (human) (UniProt P04629); conditions: compound 100.0 µM; ATP 20 µM
# [21] = biological target: PIM3 (human) (UniProt Q86V86); conditions: compound 100.0 µM; ATP 20 µM
# [22] = biological target: MAPKAPK3 (human) (UniProt Q16644); conditions: compound 100.0 µM; ATP 20 µM
# [23] = biological target: JAK2 JH1 JH2 (human) (UniProt O60674); conditions: compound 100.0 µM; ATP 5 µM
# [24] = biological target: MAP3K7 TAB1 (human) (UniProt Q15750+O43318); conditions: compound 100.0 µM; ATP 5 µM
# [25] = biological target: PAK7 (human) (UniProt Q9P286); conditions: compound 100.0 µM; ATP 20 µM
# [26] = biological target: IRAK4 (human) (UniProt Q9NWZ3); conditions: compound 100.0 µM; ATP 20 µM
# [27] = biological target: PIM2 (human) (UniProt Q9P1W9); conditions: compound 100.0 µM; ATP 5 µM
# [28] = biological target: MKNK2 (human) (UniProt Q9HBH9); conditions: compound 100.0 µM; ATP 50 µM
# [29] = biological target: RPS6KA5 KD1 KD2 (human) (UniProt O75582); conditions: compound 100.0 µM; ATP 20 µM
# [30] = biological target: BRSK1 (human) (UniProt Q8TDC3); conditions: compound 100.0 µM; ATP 20 µM
# [31] = biological target: TEK (human) (UniProt Q02763); conditions: compound 100.0 µM; ATP 20 µM
# [32] = biological target: PRKCG (human) (UniProt P05129); conditions: compound 100.0 µM; ATP 20 µM
# [33] = biological target: NEK2 (human) (UniProt P51955); conditions: compound 100.0 µM; ATP 50 µM
# [34] = biological target: STK3 (human) (UniProt Q13188); conditions: compound 100.0 µM; ATP 20 µM
# [35] = biological target: YES1 (human) (UniProt P07947); conditions: compound 100.0 µM; ATP 20 µM
# [36] = biological target: BTK (human) (UniProt Q06187); conditions: compound 100.0 µM; ATP 50 µM
# Chain of IRAK4 (human) (Q9NWZ3 whole entry, looked up): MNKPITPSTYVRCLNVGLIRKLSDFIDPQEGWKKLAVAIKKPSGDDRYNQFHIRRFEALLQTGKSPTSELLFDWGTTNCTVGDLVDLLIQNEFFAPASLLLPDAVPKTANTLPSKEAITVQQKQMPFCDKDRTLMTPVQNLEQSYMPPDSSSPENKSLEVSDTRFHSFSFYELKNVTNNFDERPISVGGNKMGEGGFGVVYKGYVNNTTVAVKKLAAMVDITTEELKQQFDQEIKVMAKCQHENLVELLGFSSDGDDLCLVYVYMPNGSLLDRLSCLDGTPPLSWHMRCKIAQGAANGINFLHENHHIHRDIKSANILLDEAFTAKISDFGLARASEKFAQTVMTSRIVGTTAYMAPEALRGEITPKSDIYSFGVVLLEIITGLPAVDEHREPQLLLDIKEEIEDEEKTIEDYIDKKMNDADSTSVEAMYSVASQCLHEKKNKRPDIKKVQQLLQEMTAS
# Chain of MAP2K1 (human) (Q02750 whole entry, looked up): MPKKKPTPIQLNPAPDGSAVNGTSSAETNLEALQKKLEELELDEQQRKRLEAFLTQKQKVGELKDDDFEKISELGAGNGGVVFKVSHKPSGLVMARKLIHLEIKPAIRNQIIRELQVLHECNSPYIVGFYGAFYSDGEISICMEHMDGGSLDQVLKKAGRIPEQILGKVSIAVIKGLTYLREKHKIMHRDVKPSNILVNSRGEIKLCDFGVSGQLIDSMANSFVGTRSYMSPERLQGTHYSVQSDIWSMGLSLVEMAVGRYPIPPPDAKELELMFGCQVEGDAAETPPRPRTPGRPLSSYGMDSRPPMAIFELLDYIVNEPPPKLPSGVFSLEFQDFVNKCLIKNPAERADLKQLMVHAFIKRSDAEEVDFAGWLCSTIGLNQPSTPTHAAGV
# Chain of MAP3K7 TAB1 (human) (O43318 whole entry, looked up): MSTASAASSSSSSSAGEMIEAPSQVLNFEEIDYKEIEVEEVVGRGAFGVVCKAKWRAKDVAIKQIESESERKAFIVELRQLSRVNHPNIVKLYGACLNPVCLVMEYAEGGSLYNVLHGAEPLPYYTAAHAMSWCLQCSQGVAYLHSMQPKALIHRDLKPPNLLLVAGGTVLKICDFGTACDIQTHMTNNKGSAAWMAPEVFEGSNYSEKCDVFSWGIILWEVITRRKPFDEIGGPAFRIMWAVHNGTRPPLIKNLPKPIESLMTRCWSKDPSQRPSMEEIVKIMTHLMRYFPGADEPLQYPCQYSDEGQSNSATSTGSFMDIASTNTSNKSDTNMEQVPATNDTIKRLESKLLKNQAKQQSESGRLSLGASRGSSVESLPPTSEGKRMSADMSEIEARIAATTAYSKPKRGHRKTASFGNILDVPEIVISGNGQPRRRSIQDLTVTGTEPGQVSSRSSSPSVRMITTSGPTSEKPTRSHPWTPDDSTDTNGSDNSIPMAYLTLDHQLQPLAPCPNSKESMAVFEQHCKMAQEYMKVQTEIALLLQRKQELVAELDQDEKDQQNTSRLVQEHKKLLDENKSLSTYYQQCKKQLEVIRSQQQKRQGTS
# Chain of MAP3K7 TAB1 (human) (Q15750 whole entry, looked up): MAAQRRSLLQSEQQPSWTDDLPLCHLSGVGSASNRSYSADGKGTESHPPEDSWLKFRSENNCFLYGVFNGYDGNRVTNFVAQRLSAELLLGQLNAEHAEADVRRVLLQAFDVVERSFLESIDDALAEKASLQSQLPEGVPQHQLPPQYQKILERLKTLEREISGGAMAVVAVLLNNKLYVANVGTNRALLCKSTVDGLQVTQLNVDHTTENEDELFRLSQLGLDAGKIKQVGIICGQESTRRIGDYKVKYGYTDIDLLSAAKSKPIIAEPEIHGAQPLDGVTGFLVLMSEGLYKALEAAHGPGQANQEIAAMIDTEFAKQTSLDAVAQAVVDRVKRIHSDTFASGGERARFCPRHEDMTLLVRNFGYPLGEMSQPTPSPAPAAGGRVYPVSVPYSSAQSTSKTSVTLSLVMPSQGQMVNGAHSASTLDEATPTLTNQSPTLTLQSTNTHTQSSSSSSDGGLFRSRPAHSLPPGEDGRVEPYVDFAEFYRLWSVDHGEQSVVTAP
# Chain of MARK1 (human) (Q9P0L2 whole entry, looked up): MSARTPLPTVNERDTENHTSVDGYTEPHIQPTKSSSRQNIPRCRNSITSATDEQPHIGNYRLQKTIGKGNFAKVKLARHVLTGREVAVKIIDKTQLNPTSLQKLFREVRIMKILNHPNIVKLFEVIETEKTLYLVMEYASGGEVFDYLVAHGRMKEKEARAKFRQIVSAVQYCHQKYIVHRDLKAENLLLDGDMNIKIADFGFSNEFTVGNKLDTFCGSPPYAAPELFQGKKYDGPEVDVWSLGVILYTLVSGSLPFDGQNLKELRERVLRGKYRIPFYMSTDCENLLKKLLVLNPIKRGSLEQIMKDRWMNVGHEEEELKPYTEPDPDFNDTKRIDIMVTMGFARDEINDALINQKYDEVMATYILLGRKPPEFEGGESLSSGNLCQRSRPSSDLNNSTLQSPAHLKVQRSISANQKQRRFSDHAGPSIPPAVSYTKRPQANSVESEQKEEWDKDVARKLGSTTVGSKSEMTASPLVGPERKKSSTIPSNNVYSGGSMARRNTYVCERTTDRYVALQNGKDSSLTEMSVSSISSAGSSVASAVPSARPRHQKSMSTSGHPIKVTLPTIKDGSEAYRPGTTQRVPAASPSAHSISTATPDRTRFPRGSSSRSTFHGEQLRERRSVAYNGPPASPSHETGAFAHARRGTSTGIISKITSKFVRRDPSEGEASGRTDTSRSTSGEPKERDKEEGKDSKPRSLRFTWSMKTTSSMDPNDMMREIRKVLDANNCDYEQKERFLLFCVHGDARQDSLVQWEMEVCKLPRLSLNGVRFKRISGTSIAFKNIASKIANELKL
# Chain of MAP3K9 (human) (P80192 whole entry, looked up): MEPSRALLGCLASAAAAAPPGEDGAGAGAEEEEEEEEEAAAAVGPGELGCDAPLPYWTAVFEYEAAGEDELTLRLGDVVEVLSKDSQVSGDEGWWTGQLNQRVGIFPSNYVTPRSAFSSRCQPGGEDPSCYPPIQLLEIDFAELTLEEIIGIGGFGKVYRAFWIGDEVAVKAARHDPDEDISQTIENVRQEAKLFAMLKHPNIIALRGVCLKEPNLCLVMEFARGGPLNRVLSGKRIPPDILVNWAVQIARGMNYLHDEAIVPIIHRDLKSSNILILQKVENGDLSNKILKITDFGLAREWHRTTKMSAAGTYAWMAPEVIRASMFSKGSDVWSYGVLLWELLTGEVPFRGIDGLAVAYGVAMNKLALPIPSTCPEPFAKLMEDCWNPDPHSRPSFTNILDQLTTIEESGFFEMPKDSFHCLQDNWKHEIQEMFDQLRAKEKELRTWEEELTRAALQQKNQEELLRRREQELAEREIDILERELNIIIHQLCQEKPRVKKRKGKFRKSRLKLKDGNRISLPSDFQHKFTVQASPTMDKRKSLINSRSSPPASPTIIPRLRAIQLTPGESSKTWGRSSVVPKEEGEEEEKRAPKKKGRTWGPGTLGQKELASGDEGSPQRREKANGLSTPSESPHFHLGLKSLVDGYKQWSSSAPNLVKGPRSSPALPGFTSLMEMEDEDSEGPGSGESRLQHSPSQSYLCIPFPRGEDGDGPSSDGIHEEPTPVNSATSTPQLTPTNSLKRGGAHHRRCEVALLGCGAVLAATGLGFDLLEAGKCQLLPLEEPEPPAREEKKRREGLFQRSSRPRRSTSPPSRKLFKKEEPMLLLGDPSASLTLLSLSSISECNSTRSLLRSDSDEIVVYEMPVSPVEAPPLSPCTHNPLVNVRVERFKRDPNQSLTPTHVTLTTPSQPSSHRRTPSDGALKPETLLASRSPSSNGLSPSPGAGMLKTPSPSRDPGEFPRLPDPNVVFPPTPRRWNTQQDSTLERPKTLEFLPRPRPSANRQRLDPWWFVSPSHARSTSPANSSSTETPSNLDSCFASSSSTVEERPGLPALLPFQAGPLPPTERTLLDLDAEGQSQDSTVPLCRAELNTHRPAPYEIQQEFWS
# Chain of MAPK9 (human) (P45984 whole entry, looked up): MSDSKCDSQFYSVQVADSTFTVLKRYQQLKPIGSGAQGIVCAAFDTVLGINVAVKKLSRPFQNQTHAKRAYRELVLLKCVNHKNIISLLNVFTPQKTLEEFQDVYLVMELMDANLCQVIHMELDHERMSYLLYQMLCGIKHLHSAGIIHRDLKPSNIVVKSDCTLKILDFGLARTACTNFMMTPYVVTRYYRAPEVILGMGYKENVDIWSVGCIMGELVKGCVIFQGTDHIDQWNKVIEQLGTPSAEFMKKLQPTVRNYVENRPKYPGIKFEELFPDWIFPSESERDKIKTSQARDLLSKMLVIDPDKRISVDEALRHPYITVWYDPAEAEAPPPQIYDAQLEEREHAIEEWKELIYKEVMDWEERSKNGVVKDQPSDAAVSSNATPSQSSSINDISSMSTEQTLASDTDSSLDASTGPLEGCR
SMILES,inhibition [1] [%],inhibition [2] [%],inhibition [3] [%],inhibition [4] [%],inhibition [5] [%],inhibition ([6]; ATP 20 µM) [%],inhibition ([6]; ATP 50 µM) [%],inhibition [7] [%],inhibition [8] [%],inhibition [9] [%],inhibition [10] [%],inhibition [11] [%],inhibition [12] [%],inhibition [13] [%],inhibition [14] [%],inhibition [15] [%],inhibition [16] [%],inhibition [17] [%],inhibition [18] [%],inhibition [19] [%],also measured
Cc1cccc(C)c1-c1cn2nc(N)nc2cn1,38,22,8,15,52,15,13,18,16,21,28,43,18,24,0,0,15,26,6,14,inhibition [20]: 8%; inhibition [21]: 26%; inhibition [22]: 33%; inhibition [23]: 16%; inhibition [24]: 3%; inhibition [25]: 13%; inhibition [26]: 18%; inhibition [27]: 2%; inhibition [28]: 30%; inhibition [29]: 6%; inhibition [30]: 14%; inhibition [31]: 6%; inhibition [32]: 6%; inhibition [33]: 38%; inhibition [34]: 9%; inhibition [35]: 42%; inhibition [36]: 44%
O=C(Nc1cnc2[nH]cnn2c1=O)c1ccccc1,11,20,0,0,6,1,0,0,0,0,0,0,0,0,3,0,0,0,10,3,inhibition [20]: 0%; inhibition [21]: 0%; inhibition [22]: 0%; inhibition [23]: 0%; inhibition [24]: 15%; inhibition [25]: 0%; inhibition [26]: 0%; inhibition [27]: 0%; inhibition [28]: 10%; inhibition [29]: 52%; inhibition [30]: 2%; inhibition [31]: 0%; inhibition [32]: 2%; inhibition [33]: 0%; inhibition [34]: 0%; inhibition [35]: 0%; inhibition [36]: 17%
CC1CN(c2nc3ccccn3c(=O)c2N)CC(C)O1 (stereo not drawn),16,7,0,0,35,31,26,0,0,0,3,28,7,1,6,0,26,75,6,2,inhibition [20]: 37%; inhibition [21]: 1%; inhibition [22]: 70%; inhibition [23]: 35%; inhibition [24]: 0%; inhibition [25]: 0%; inhibition [26]: 3%; inhibition [27]: 19%; inhibition [28]: 0%; inhibition [29]: 0%; inhibition [30]: 12%; inhibition [31]: 5%; inhibition [32]: 0%; inhibition [33]: 0%; inhibition [34]: 0%; inhibition [35]: 57%; inhibition [36]: 1%
Nc1nc2cnc(-c3ccccc3)cn2n1,42,37,18,18,41,35,6,81,28,54,73,56,30,97,26,31,0,34,7,72,inhibition [20]: 61%; inhibition [21]: 55%; inhibition [22]: 40%; inhibition [23]: 76%; inhibition [24]: 86%; inhibition [25]: 79%; inhibition [26]: 80%; inhibition [27]: 16%; inhibition [28]: 66%; inhibition [29]: 19%; inhibition [30]: 27%; inhibition [31]: 39%; inhibition [32]: 24%; inhibition [33]: 77%; inhibition [34]: 6%; inhibition [35]: 89%; inhibition [36]: 67%
